One block for each molecule: values may come before it. Active and inactive are the calls of the source. No cut-off for these calls is given here.
How the values were obtained:
[1] = test system: MCF7; experiment: Antiproliferative activity against human MCF7 cells incubated for 48 hrs; type: functional, cell-based; conditions: MCF7, 48 h
[2] = test system: HCT-116; experiment: Antiproliferative activity against human HCT116 cells incubated for 48 hrs; type: functional, cell-based; conditions: HCT-116, 48 h
[3] = test system: NCI-H460; experiment: Antiproliferative activity against human NCI-H460 cells incubated for 48 hrs; type: functional, cell-based; conditions: NCI-H460, 48 h
[4] = test system: U-87 MG; experiment: Antiproliferative activity against human U87MG cells incubated for 48 hrs; type: functional, cell-based, U-87MG ATCC
[5] = test system: NCI-H460; experiment: Anti-OXPHOS activity in human NCI-H460 cells assessed as inhibition of mitochondrial oxidative phosphorylation by seahorse XFe96 analyser based assay; conditions: Mitochondria
[6] = test system: NCI-H460; experiment: Anti-OXPHOS activity in human NCI-H460 cells assessed as inhibition of oxygen consumption rate at 4 uM incubated for 1 hr by seahorse XFe96 analyser based assay relative to control
[7] = test system: NCI-H460; experiment: Antiproliferative activity against human NCI-H460 cells assessed as inhibition of cell growth at 32 uM incubated for 3 hrs; type: functional, cell-based
[8] = test system: NCI-H460; experiment: Anti-OXPHOS activity in human NCI-H460 cells assessed as inhibition of oxygen consumption rate at 8 uM by seahorse XFe96 analyser based assay
[9] = test system: NCI-H460; experiment: Induction of apoptosis in human NCI-H460 cells assessed as viable cells at 2 uM by Annexin V/PI staining based flow cytometric analysis (reference value: 95.3%); type: functional; conditions: read-out: Activity
[10] = test system: NCI-H460; experiment: Induction of apoptosis in human NCI-H460 cells assessed as early apoptotic cells at 2 uM by Annexin V/PI staining based flow cytometric analysis (reference value: […]); type: functional
[11] = test system: NCI-H460; experiment: Induction of apoptosis in human NCI-H460 cells assessed as late apoptotic cells at 2 uM by Annexin V/PI staining based flow cytometric analysis (reference value: 1.17%); type: functional
[12] = test system: NCI-H460; experiment: Induction of apoptosis in human NCI-H460 cells assessed as necrotic cells at 2 uM by Annexin V/PI staining based flow cytometric analysis (reference value: 2.75%); type: functional
[13] = test system: NCI-H460; experiment: Induction of apoptosis in human NCI-H460 cells assessed as viable cells at 4 uM by Annexin V/PI staining based flow cytometric analysis (reference value: 95.3%); type: functional; conditions: read-out: Activity
[14] = test system: NCI-H460; experiment: Induction of apoptosis in human NCI-H460 cells assessed as early apoptotic cells at 4 uM by Annexin V/PI staining based flow cytometric analysis (reference value: […]); type: functional
[15] = test system: NCI-H460; experiment: Induction of apoptosis in human NCI-H460 cells assessed as late apoptotic cells at 4 uM by Annexin V/PI staining based flow cytometric analysis (reference value: 1.17%); type: functional
[16] = test system: NCI-H460; experiment: Induction of apoptosis in human NCI-H460 cells assessed as necrotic cells at 4 uM by Annexin V/PI staining based flow cytometric analysis (reference value: 2.75%); type: functional
[17] = test system: NCI-H460; experiment: Induction of apoptosis in human NCI-H460 cells by Annexin V/PI staining based flow cytometric analysis; type: functional, cell-based
[18] = test system: NCI-H460; experiment: Antitumor activity against human NCI-H460 cells xenografted in nude mouse assessed as inhibition of tumor mass at 2.5 mg/kg, ip administered every other day for 21 days measured every 3 days; type: functional
[19] = Toxicity in nude mouse xenografted with human NCI-H460 cells assessed as body weight loss at 2.5 to 5 mg/kg, ip administered every other day for 21 days; type: organism-based; conditions: in vivo, 504 h
[20] = Toxicity in nude mouse xenografted with human NCI-H460 cells assessed as mortality at 5 mg/kg, ip administered every other day for 21 days; type: organism-based; conditions: in vivo, 504 h
[21] = test system: NCI-H460; experiment: Anti-OXPHOS activity in human NCI-H460 cells assessed as inhibition of oxygen consumption rate at 8 uM in presence of uncoupling agent, FCCP by seahorse XFe96 analyser based assay
[22] = test system: NCI-H460; experiment: Antitumor activity against human NCI-H460 cells xenografted in nude mouse assessed as decrease in tumor volume at 2.5 mg/kg, ip administered every other day for 21 days measured every 3 days; type: functional, organism-based
[23] = test system: NCI-H460; experiment: Antitumor activity against human NCI-H460 cells xenografted in nude mouse assessed as inhibition of tumor mass at 5 mg/kg, ip administered every other day for 21 days measured every 3 days; type: functional
[24] = Toxicity in nude mouse xenografted with human NCI-H460 cells assessed as body weight loss at 5 to 10 mg/kg, ip administered every other day for 21 days; type: organism-based; conditions: in vivo, 504 h
[25] = Toxicity in nude mouse xenografted with human NCI-H460 cells assessed as mortality at 10 mg/kg, ip administered every other day for 21 days; type: organism-based; conditions: in vivo, 504 h
[26] = test system: NCI-H460; experiment: Antitumor activity against human NCI-H460 cells xenografted in nude mouse assessed as decrease in tumor volume at 5 mg/kg, ip administered every other day for 21 days measured every 3 days; type: functional, organism-based
[27] = test system: NCI-H460; experiment: Inhibition of F0 subunit in F0F1 ATP synthase in human NCI-H460 cells assessed as inhibition of oxygen consumption rate at 1 uM by seahorse XFe96 analyser based assay; type: cell-based

SMILES: CC[C@H]1CCC[C@H](O[C@H]2CC[C@H](N(C)CCC[n+]3cccc(C(N)=O)c3)[C@@H](C)O2)[C@@H](C)C(=O)C2=C[C@@H]3[C@@H](C=C[C@@H]4C[C@@H](O[C@@H]5O[C@@H](C)[C@H](OC)[C@@H](OC)[C@H]5OC)C[C@@H]34)[C@@H]2CC(=O)O1
IC50 [1]: > 100 µM

SMILES: CC[C@H]1CCC[C@H](O[C@H]2CC[C@H](N(C)C)[C@@H](C)O2)[C@@H](C)C(=O)C2=C[C@@H]3[C@@H](C=C[C@@H]4C[C@@H](O[C@@H]5O[C@@H](C)[C@H](OC)[C@@H](OC)[C@H]5OC)C[C@@H]34)[C@@H]2CC(=O)O1 [SPINOSYN A]
IC50 [1]: 17.9 µM
IC50 [2]: 11100 nM
IC50 [3]: 67.5 µM
IC50 [4]: 96500 nM

SMILES: CC[C@H]1CCC[C@H](OC(=O)C[n+]2ccccc2)[C@@H](C)C(=O)C2=C[C@@H]3[C@@H](C=C[C@@H]4C[C@@H](O[C@@H]5O[C@@H](C)[C@H](OC)[C@@H](OC)[C@H]5OC)C[C@@H]34)[C@@H]2CC(=O)O1
IC50 [1]: > 100 µM

SMILES: CC[C@H]1CCC[C@H](OC(=O)CCC[n+]2cccc(C(N)=O)c2)[C@@H](C)C(=O)C2=C[C@@H]3[C@@H](C=C[C@@H]4C[C@@H](O[C@@H]5O[C@@H](C)[C@H](OC)[C@@H](OC)[C@H]5OC)C[C@@H]34)[C@@H]2CC(=O)O1
IC50 [1]: > 100 µM

SMILES: CC[C@H]1CCC[C@H](OC(=O)CCC[n+]2ccccc2)[C@@H](C)C(=O)C2=C[C@@H]3[C@@H](C=C[C@@H]4C[C@@H](O[C@@H]5O[C@@H](C)[C@H](OC)[C@@H](OC)[C@H]5OC)C[C@@H]34)[C@@H]2CC(=O)O1
IC50 [1]: > 100 µM

SMILES: CC[C@H]1CCC[C@H](O[C@H]2CC[C@H](N(C)CCCCCC[P+](c3ccccc3)(c3ccccc3)c3ccccc3)[C@@H](C)O2)[C@@H](C)C(=O)C2=C[C@@H]3[C@@H](C=C[C@@H]4C[C@@H](O[C@@H]5O[C@@H](C)[C@H](OC)[C@@H](OC)[C@H]5OC)C[C@@H]34)[C@@H]2CC(=O)O1.[Br-]
IC50 [1]: 2 µM
IC50 [2]: 300 nM
IC50 [3]: 1.6 µM
IC50 [4]: 1300 nM
inhibition [5]: Dose-dependent effect
inhibition [6]: 42%
inhibition [7]: inactive
inhibition [8]: Active
viability at 2 µM [9]: 74.8%
Activity [10]: 19.9%
Activity [11]: 3.91%
Activity [12]: 1.38%
viability at 4 µM [13]: 69.3%
Activity [14]: 22%
Activity [15]: 6.99%
Activity [16]: 1.69%
Activity [17]: Dose-dependent effect
inhibition in vivo at 2.5 mg/kg [18]: 14.6%
Activity [19]: Non-Toxic
Activity [20]: Toxic
inhibition [21]: inactive
inhibition [22]: Active

SMILES: CC[C@H]1CCC[C@H](O[C@H]2CC[C@H](N(C)CCCCCC[n+]3ccc4ccccc4c3)[C@@H](C)O2)[C@@H](C)C(=O)C2=C[C@@H]3[C@@H](C=C[C@@H]4C[C@@H](O[C@@H]5O[C@@H](C)[C@H](OC)[C@@H](OC)[C@H]5OC)C[C@@H]34)[C@@H]2CC(=O)O1.[Br-]
IC50 [1]: 8.9 µM
IC50 [2]: 2800 nM
IC50 [3]: 4.6 µM
IC50 [4]: 2500 nM
inhibition [5]: Dose-dependent effect
inhibition [6]: 41%
inhibition [7]: inactive
inhibition [8]: Active
viability at 2 µM [9]: 84.4%
Activity [10]: 9.36%
Activity [11]: 5.01%
Activity [12]: 1.21%
viability at 4 µM [13]: 70.7%
Activity [14]: 20.7%
Activity [15]: 6.98%
Activity [16]: 1.58%
Activity [17]: Dose-dependent effect
inhibition in vivo at 5 mg/kg [23]: 8.8%
Activity [24]: Non-Toxic
Activity [25]: Toxic
inhibition [21]: inactive
inhibition [26]: Active

SMILES: CC[C@H]1/C=C/C=C/C[C@@H](C)[C@H](O)[C@@](C)(O)C(=O)[C@@H](C)[C@H](O)[C@@H](C)C(=O)[C@@H](C)[C@H](O)[C@@H](C)/C=C/C(=O)O[C@@H]2[C@H](C)[C@H](CC1)O[C@]1(CC[C@H](C)[C@H](C[C@@H](C)O)O1)[C@H]2C
inhibition [27]: Active

The next lines start with the values.

IC50 [1]: 4.1 µM
IC50 [2]: 100 nM
IC50 [3]: 2.7 µM
IC50 [4]: 1300 nM
SMILES: CC[C@H]1CCC[C@H](O[C@H]2CC[C@H](N(C)CCC[P+](c3ccccc3)(c3ccccc3)c3ccccc3)[C@@H](C)O2)[C@@H](C)C(=O)C2=C[C@@H]3[C@@H](C=C[C@@H]4C[C@@H](O[C@@H]5O[C@@H](C)[C@H](OC)[C@@H](OC)[C@H]5OC)C[C@@H]34)[C@@H]2CC(=O)O1

IC50 [1]: > 100 µM
SMILES: CC[C@H]1CCC[C@H](OC(=O)C[n+]2cccc(C(N)=O)c2)[C@@H](C)C(=O)C2=C[C@@H]3[C@@H](C=C[C@@H]4C[C@@H](O[C@@H]5O[C@@H](C)[C@H](OC)[C@@H](OC)[C@H]5OC)C[C@@H]34)[C@@H]2CC(=O)O1

IC50 [1]: 30.5 µM
SMILES: CC[C@H]1CCC[C@H](O[C@H]2CC[C@H](N(C)CCCCCC[n+]3cccc(C(N)=O)c3)[C@@H](C)O2)[C@@H](C)C(=O)C2=C[C@@H]3[C@@H](C=C[C@@H]4C[C@@H](O[C@@H]5O[C@@H](C)[C@H](OC)[C@@H](OC)[C@H]5OC)C[C@@H]34)[C@@H]2CC(=O)O1

IC50 [1]: 4.3 µM
IC50 [2]: 9800 nM
IC50 [3]: 22 µM
IC50 [4]: 11200 nM
SMILES: CC[C@H]1CCC[C@H](O[C@H]2CC[C@H](N(C)CCCCCC[n+]3ccccc3)[C@@H](C)O2)[C@@H](C)C(=O)C2=C[C@@H]3[C@@H](C=C[C@@H]4C[C@@H](O[C@@H]5O[C@@H](C)[C@H](OC)[C@@H](OC)[C@H]5OC)C[C@@H]34)[C@@H]2CC(=O)O1

IC50 [1]: 23.7 µM
SMILES: CC[C@H]1CCC[C@H](O[C@H]2CC[C@H](N(C)CCC[n+]3ccccc3)[C@@H](C)O2)[C@@H](C)C(=O)C2=C[C@@H]3[C@@H](C=C[C@@H]4C[C@@H](O[C@@H]5O[C@@H](C)[C@H](OC)[C@@H](OC)[C@H]5OC)C[C@@H]34)[C@@H]2CC(=O)O1

IC50 [1]: 3.1 µM
IC50 [2]: 800 nM
IC50 [3]: 1.5 µM
IC50 [4]: 2700 nM
SMILES: CC[C@H]1CCC[C@H](OC(=O)CCC[P+](c2ccccc2)(c2ccccc2)c2ccccc2)[C@@H](C)C(=O)C2=C[C@@H]3[C@@H](C=C[C@@H]4C[C@@H](O[C@@H]5O[C@@H](C)[C@H](OC)[C@@H](OC)[C@H]5OC)C[C@@H]34)[C@@H]2CC(=O)O1
